{
  "source": "paper PMC5031696",
  "about": "“Synthesis, Biodistribution and In vitro Evaluation of Brain Permeable High Affinity Type 2 Cannabinoid Receptor Agonists [^11C]MA2 and [^18F]MA3” (Frontiers in Neuroscience, 2016)",
  "key": {"CB2": {"test_system": "CB2", "parameters": "method as in Evens et al., 2011", "details": "ref Evens et al., 2011; cited from earlier work"}, "hCB2 [1]": {"biological_target": "T1, hCB2 (Homo sapiens, UniProt P34972)", "T1 construct": "host or cells: CHO-K1 beta-arrestin cells", "T1 sequence (P34972 whole entry)": "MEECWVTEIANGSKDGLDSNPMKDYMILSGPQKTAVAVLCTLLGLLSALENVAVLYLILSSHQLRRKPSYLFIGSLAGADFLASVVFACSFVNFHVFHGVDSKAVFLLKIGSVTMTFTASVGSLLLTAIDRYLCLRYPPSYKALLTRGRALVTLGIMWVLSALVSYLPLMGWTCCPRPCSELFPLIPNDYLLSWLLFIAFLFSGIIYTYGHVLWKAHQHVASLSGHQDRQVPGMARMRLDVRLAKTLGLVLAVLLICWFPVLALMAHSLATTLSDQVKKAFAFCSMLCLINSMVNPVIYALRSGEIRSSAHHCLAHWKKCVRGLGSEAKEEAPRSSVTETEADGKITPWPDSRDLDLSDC", "experiment": "functional cAMP assay, hCB2", "type": "cell-based", "details": "for functional behaviour in cAMP assay: hCB2", "procedure": "(§1) CHO-K1 beta-arrestin cells (DiscoveRx, Fremont, CA) expressing hCB2, mouse CB2 (mCB2), and human CB1 (hCB1) were cultured in F-12 Nutrient Mixture (HAM) supplemented with 10% fetal bovine serum (FBS), 300 μg/mL hygromycin and 800 μg/mL geneticin (G418). Cells were incubated in a humidified atmosphere at 37°C with 5% CO2.\n(§2) cAMP was measured using cAMP-Nano-TRF detection kit (Roche Diagnostics, Penzberg, Germany). Cells were seeded 17–24 h prior to the experiment 3 × 10^4 cells per well in a black 96-well plate with flat clear bottom (Corning, Wiesbaden, Germany) in growth medium and incubated in 5% CO2 at 37°C in a humidified incubator. The growth medium was exchanged with Krebs Ringer bicarbonate buffer with 1 mmol/L 3-isobutyl-1-methylxanthine (IBMX), 0.1% fatty acid-free bovine serum albumin (BSA) and incubated at 30°C for 60 min. Agonist was added to a final assay volume of 100 μL and the mixture was incubated for 30 min at 30°C. The assay was stopped by the addition of 50 μL 3x lysis reagent and shaken for 2 h at room temperature. The time-resolved energy transfer was measured using an LF502 Nanoscan FLT (IOM, Berlin, Germany), equipped with a laser as excitation source. cAMP content was determined from the function of a standard curve spanning from 10 to 0.13 nmol/L cAMP."}, "mCB2 [2]": {"biological_target": "T2, mCB2 (Mus musculus, UniProt P47936)", "T2 construct": "host or cells: CHO-K1 beta-arrestin cells", "T2 sequence (P47936 whole entry)": "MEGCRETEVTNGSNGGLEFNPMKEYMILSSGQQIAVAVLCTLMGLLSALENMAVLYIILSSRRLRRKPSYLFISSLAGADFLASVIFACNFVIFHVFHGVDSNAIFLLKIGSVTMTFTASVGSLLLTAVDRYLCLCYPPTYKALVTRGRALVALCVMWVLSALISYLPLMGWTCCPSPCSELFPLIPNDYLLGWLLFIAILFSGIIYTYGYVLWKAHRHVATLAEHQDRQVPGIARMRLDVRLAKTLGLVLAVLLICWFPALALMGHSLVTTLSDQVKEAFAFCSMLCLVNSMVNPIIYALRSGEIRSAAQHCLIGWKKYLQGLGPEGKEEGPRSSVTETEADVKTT", "experiment": "functional cAMP assay, mCB2", "type": "cell-based", "procedure": "as §1, §2"}, "hCB1 [3]": {"biological_target": "T3, hCB1 (Homo sapiens, UniProt P21554)", "T3 construct": "host or cells: CHO-K1 beta-arrestin cells", "T3 sequence (P21554 whole entry)": "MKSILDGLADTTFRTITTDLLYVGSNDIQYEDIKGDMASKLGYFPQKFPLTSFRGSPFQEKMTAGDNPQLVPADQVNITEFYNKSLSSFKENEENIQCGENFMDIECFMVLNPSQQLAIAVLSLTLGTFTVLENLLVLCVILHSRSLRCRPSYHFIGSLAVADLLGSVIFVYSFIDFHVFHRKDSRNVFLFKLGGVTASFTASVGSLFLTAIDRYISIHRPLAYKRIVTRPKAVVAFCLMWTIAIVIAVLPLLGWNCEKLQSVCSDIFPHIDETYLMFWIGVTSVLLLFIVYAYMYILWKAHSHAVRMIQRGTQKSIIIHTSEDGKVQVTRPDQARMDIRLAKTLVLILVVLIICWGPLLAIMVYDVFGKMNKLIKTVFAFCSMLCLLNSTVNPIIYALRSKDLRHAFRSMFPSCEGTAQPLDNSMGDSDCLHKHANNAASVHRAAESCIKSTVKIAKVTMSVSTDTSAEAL", "experiment": "functional cAMP assay, hCB1 versus hCB2", "type": "cell-based", "details": "cAMP assays", "procedure": "as §1, §2"}, "mCB2 [4]": {"biological_target": "T2, mCB2", "experiment": "radioligand binding assay with [^3H]CP55940, mCB2", "procedure": "as §1\n(§3) Stably transfected cells were treated for 24 h with 5 mM butyrate in growth medium before harvesting, followed by homogenization in 15 mmol/L Hepes, 0.3 mmol/L EDTA, 1 mmol/L EGTA, 2 mmol/L MgCl2, complete EDTA-free protease inhibitor (Roche Applied Science, Rotkreuz, Switzerland), pH 7.4 using a glass potter and centrifugation at 47,800 g at 4°C for 30 min. The pellet was then rehomogenized twice in the same buffer and centrifuged (47,800 g, 4°C, 30 min). The final pellet was then resuspended in 75 mmol/L Tris, 0.3 mmol/L EDTA, 1 mmol/L EGTA, 12.5 mmol/L MgCl2, 250 mmol/L sucrose, pH 7.4 at a protein concentration of 1 to 3 mg/mL, aliquoted, frozen on dry ice and stored at −80°C. Saturation binding was performed with 0.05 to 2.6 nM [^3H]CP55940 (Perkin Elmer) and 1.0 μg of membrane protein. CP55940 (10 μM) was used to define non-specific binding. More than 95% of the total binding signal was specific. Assay buffer consisted of 50 mmol/L Tris-HCl, 5 mmol/L MgCl2, 2.5 mmol/L EGTA, and 0.1% fatty acid-free BSA, pH 7.4. Assays were initiated by addition of membranes in a final volume of 250 μL/well. Mixtures were incubated for 3 h at room temperature and then vacuum filtered and rinsed with wash buffer (50 mmol/L Tris-HCl, 5 mmol/L MgCl2, 2.5 mmol/L EGTA, and 0.5% fatty acid-free BSA, pH 7.4) on a Filtermate cell harvester through Packard GF/B filters presoaked in 0.3% polyethylenimine.\n(§4) For competition binding, membrane preparations were incubated with 0.3 nM [^3H]CP55940 in the presence or absence of increasing concentrations of ligands for 60 min at 30°C in a final volume of 0.2 mL of 50 mmol/L Tris-HCl, 5 mmol/L MgCl2, 2.5 mmol/L EGTA, 0.1% fatty acid-free BSA, and 1% DMSO, pH 7.4, buffer, gently shaking. Non-specific binding was defined with 10 μM CP55940. All binding reactions were terminated by vacuum filtration onto 0.5% polyethylenimine presoaked GF/B filter plates (Packard) followed by seven brief washes with 2 mL of ice-cold binding buffer containing 0.5% fatty acid-free BSA. Plates were dried at 50°C for 1 h and liquid scintillation counting was used to determine bound radiolabel. IC50 values and Hill slopes were determined by a four parameter logistic model using ActivityBase (ID Business Solution, Guilford, UK). pKi values were determined by the generalized Cheng-Prusoff equation (Yung-Chi and Prusoff, [1973])."}, "hCB1 [5]": {"biological_target": "T3, hCB1", "experiment": "radioligand binding assay with [^3H]CP55940, hCB1", "details": "for Ki ratio hCB1/hCB2: selectivity", "procedure": "as §1, §3, §4"}, "hCB2 [6]": {"biological_target": "T1, hCB2", "experiment": "radioligand binding assay with [^3H]CP55940, hCB2", "procedure": "as §1, §3, §4"}},
  "note": "Read-outs that look alike come from different tables or passages of the source.",
  "data": [
    {"smiles": "Cc1c(CCN2CCOCC2)c2cc(OCC[18F])ccc2n1C(=O)c1cccc(Cl)c1Cl", "note": "[[^18F]FE-GW405833]", "values": [
      {"measurement": "binding affinity for CB2", "setting": "CB2", "value": 27, "unit": "nM"}
    ]},
    {"smiles": "FCCOc1ccc2ncc(NCCCc3nc(-c4ccc(F)cc4Cl)no3)cc2c1", "note": "[MA3, 6-(2-Fluoroethoxy)-N-(3-(3-(2-chloro-4-fluorophenyl)-1,2,4-oxadiazol-5-yl)propyl)quinolin-3-amine]", "values": [
      {"measurement": "hCB2 cAMP % eff (efficacy)", "setting": "hCB2 [1]; CHO-K1 cells expressing hCB2", "value": 102, "unit": "%"},
      {"measurement": "EC50", "setting": "hCB2 [1]; CHO-K1 cells expressing hCB2, read-out: hCB2 cAMP EC50", "value": 0.13, "unit": "nM"},
      {"measurement": "functional behaviour in cAMP assay", "setting": "hCB2 [1]", "value": "agonists"},
      {"measurement": "mCB2 cAMP % eff (efficacy)", "setting": "mCB2 [2]; CHO-K1 cells expressing mCB2", "value": 101, "unit": "%"},
      {"measurement": "EC50", "setting": "mCB2 [2]; CHO-K1 cells expressing mCB2, read-out: mCB2 cAMP EC50", "value": 0.09, "unit": "nM"},
      {"measurement": "EC50 ratio hCB1/hCB2", "setting": "hCB1 [3]", "value": 563},
      {"measurement": "Ki", "setting": "mCB2 [4]; competition with [^3H]CP55940, read-out: mCB2 Ki", "value": 2.6, "unit": "nM"},
      {"measurement": "Ki", "setting": "hCB1 [5]; competition with [^3H]CP55940, read-out: hCB1 Ki", "value": 102, "unit": "nM"},
      {"measurement": "Ki ratio hCB1/hCB2", "setting": "hCB1 [5]", "value": 127},
      {"measurement": "times higher hCB2 affinity compared to 12", "setting": "hCB2 [6]; Ki comparison", "value": "about 4"},
      {"measurement": "times higher hCB2 affinity compared to MA2", "setting": "hCB2 [6]; Ki comparison", "value": "about 100"},
      {"measurement": "times higher hCB2 affinity compared to NE40", "setting": "hCB2 [6]; Ki comparison", "value": 5},
      {"measurement": "Ki", "setting": "hCB2 [6]; competition with [^3H]CP55940, read-out: hCB2 Ki", "value": 0.8, "unit": "nM"}
    ]},
    {"smiles": "COc1ccc2ncc(NCCCc3nc(-c4ccc(F)cc4Cl)no3)cc2c1", "note": "[MA2, N-(3-(3-(2-chloro-4-fluorophenyl)-1,2,4-oxadiazol-5-yl)propyl)-6-methoxyquinolin-3-amine]", "values": [
      {"measurement": "EC50", "setting": "hCB2 [1]", "value": 3, "unit": "nM"},
      {"measurement": "hCB2 cAMP % eff (efficacy)", "setting": "hCB2 [1]; CHO-K1 cells expressing hCB2", "value": 101, "unit": "%"},
      {"measurement": "functional behaviour in cAMP assay", "setting": "hCB2 [1]", "value": "agonists"},
      {"measurement": "EC50", "setting": "mCB2 [2]", "value": 2, "unit": "nM"},
      {"measurement": "mCB2 cAMP % eff (efficacy)", "setting": "mCB2 [2]; CHO-K1 cells expressing mCB2", "value": 100, "unit": "%"},
      {"measurement": "EC50 ratio hCB1/hCB2", "setting": "hCB1 [3]", "value": 430},
      {"measurement": "Ki", "setting": "mCB2 [4]", "value": 241, "unit": "nM"},
      {"measurement": "Ki", "setting": "hCB1 [5]", "value": 1610, "unit": "nM"},
      {"measurement": "Ki ratio hCB1/hCB2", "setting": "hCB1 [5]", "value": 19},
      {"measurement": "Ki", "setting": "hCB2 [6]", "value": 87, "unit": "nM"}
    ]}
  ]
}
